Legend:
[1] = test system: Culex quinquefasciatus larvae; assay: Larval bioassay (WHO larvicidal procedure), late 3rd or early 4th larvae; settings: for mortality at 9.3 µg/mL: Culex quinquefasciatus, 24 h, read-out: % larvae mortality; for dosage that can cause 50% mortality: larvae; for dosage that can cause 50% mortality / % larvae mortality: 24 hours; for % larvae mortality: ≤ 15 μg/mL
Protocol: (§1) All tested insects used for the experiments were obtained from colonies cultured in the laboratory at 27 ± 2°C and 65 ± 5% relative humidity. To determine the susceptibility, three species of adult mosquitoes and larvae of Ae. aegypti, Ae. albopictus and Cx. quinquefasciatus were used as sample and were measured over a period of 1 year (2012–2013) in this study. Each different species was categorized and reared in laboratory as laboratory strains. Ae. aegypti, Ae. albopictus and Cx. quinquefasciatus were collected from cemetery near the Malaysia International Airport KLI, 2011. Mosquito larvae were placed in plastic containers located in cages (23cm x 23cm x 23cm) at laboratory condition with a photoperiod of 13 hours of daylight and 11 hours of darkness for emergence.
(§2) The larval bioassay was performed on late 3rd or early 4th larvae of Ae. aegypti, Ae. albopictus and Cx. quinquefasciatus according to the WHO larvicidal activity standard procedure. 15 mg of asaricin 1, isoasarone 2 and trans-asarone 3 were separately dissolved in 1 mL of acetone as stock solution and several concentrations (4 to 20 μg/mL) were prepared through serial dilution by mixing specific amount of stock solution with 250mL distilled water. Twenty five larvae of Ae. aegypti, Ae. albopictus and Cx. quinquefasciatus were separately introduced into the plastic cups containing appropriate concentrations of asaricin 1, isoasarone 2 and trans-asarone 3. Control was only treated with 1 mL acetone added to 250mL distilled water. Mortality of the tested larvae was recorded at the end of 24 hours. Each treatment was replicated four times.
(§3) %larvae mortality=Number of dead larvae/Total number of introduced larvae×100%

[2] = test system: Aedes aegypti larvae; assay: as above; settings: 24 hours; for dosage that can cause 50% mortality: larvae
Protocol: as §1, §2, §3

[3] = test system: Aedes albopictus larvae; assay: as above; settings: 24 hours; for dosage that can cause 50% mortality: larvae
Protocol: as §1, §2, §3

[4] = test system: Cx. quinquefasciatus eggs; assay: Ovicidal activity (egg hatching); settings: for mortality at 25 µg/mL: read-out: ovicidal activity (% of egg mortality), 25 μg/mL
[5] = test system: blood-starved female Cx. quinquefasciatus; assay: Repellent activity (WHO procedure, treated forearm in cage); type: in vivo, Culex quinquefasciatus
Protocol: (§4) This study was carried out according to the method described by WHO standard procedure. Three-day-old blood-starved female of Ae.aegypti, Ae. albopictus and Cx. quinquefasciatus (100 each) were kept in a net cage (23 cm × 23 cm × 23 cm). Hands that had no contact with lotions, perfumes or perfumed soaps were exposed to the mosquito cage. Only 25 cm^2 dorsal side of the skin on each arm was exposed and the remaining area covered by rubber gloves. The tested substance was applied at several dosages, separately in the exposed area of the forearm. Acetone was served as control. The timing of the test depended on whether the tested mosquitoes were day or night biters. Ae.aegypti and Ae. albopictus were tested from 6 am to 9 am hours, while Cx. quinquefasciatus was tested from […] to 7 pm hours. Both control and treated arms were introduced simultaneously into the mosquito cage, and followed by gentle tapping on the sides of the experimental cages to activate the mosquitoes. Each test concentration was repeated four times. The volunteers conducted test for each concentration by inserting the treated and control arms into the same cage for one minute and repeated this action every five minutes. The mosquitoes that landed on the hand were recorded and then shaken off before imbibing any blood. The percentage of repellency was calculated by the following formula, %Repellency=[Ta−Tb/Ta]×100%,where
(§5) Ta: the number of mosquitoes in the control group.
(§6) Tb: the number of mosquitoes in the treated group.

[6] = test system: blood-starved female Ae. aegypti; assay: as above; type: in vivo, Aedes aegypti; settings: for % repellency: 300 μg/mL
Protocol: as §4, §5, §6

[7] = test system: blood-starved female Ae. albopictus; assay: as above; type: in vivo, Aedes albopictus; settings: for % repellency: 300 μg/mL
Protocol: as §4, §5, §6

[8] = test system: Ae. albopictus eggs; assay: Ovicidal activity (egg hatching); settings: for mortality at 25 µg/mL: read-out: ovicidal activity (% of egg mortality), 25 μg/mL
[9] = biological target: AChE extracted from Ae. albopictus larvae (Aedes albopictus, UniProt Q2PGF2); assay: Acetylcholinesterase inhibition assay (in vitro, modified Ellman); type: biochemical
AChE extracted from Ae. albopictus larvae, sequence (Q2PGF2 37-680): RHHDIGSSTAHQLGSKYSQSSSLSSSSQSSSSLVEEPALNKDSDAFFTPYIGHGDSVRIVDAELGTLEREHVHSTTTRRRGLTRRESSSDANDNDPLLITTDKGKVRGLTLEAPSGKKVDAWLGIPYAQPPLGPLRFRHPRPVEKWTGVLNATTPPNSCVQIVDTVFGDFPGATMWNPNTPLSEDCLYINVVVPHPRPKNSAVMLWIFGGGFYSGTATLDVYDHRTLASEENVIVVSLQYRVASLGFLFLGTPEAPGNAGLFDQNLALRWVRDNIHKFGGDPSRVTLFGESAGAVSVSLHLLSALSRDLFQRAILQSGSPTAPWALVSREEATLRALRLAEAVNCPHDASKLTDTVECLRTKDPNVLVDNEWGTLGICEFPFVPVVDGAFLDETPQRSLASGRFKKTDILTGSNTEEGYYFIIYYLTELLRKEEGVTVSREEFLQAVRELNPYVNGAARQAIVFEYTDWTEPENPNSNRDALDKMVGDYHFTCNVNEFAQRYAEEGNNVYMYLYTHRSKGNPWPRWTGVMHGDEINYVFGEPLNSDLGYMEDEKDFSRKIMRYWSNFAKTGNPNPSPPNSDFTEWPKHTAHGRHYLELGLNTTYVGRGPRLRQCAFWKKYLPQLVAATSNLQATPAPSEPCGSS
Protocol: (§7) For this experiments, the larvae were removed and homogenized at 0°C (keeping the homogenized mixture in plastic tube covered with ice) in 0.05 M-phosphate buffer, pH7.5 (KH2PO4-NaOH) (Merck, USA) by using a glass homogenizer with a polytetrafluoroethylene (PTFE) pestle (5%, w/v, homogenate). The homogenates were centrifuged for 20 min at 5°C and 16000 rpm. These supernatants were collected with pipette and kept inside the ice for studying the AChE inhibition biochemical assay.
(§8) To determine the IC50 values, procedures from Ellman et al., 1961 were modified and applied. Electronic multichannel pipette (Eppendorf, USA) was used to transfer exact 10 μL of enzyme solution to each well of a 96-well microtiter plate further mixed with 20 μL of tested compounds in solution form and 150 μL of cold phosphate buffer which were kept in refrigerator 1–4°C. The assay microtiter plates were incubated at 25°C for 10 min. Inhibitors were dissolved in DMSO (Merck, USA) in several concentration and stocks diluted to give a final concentration of 0.1% DMSO (v/v) were added into test well in separated rows. This was followed by adding 20 μL of acetylthiocholine iodide (ACTHI) (Sigma-Aldrich, USA) (0.4 mM) and DTNB (Sigma-Aldrich, USA) (0.3 mM) to enzyme solution to observe the reaction. Yellowish or colorless solution was observed during reaction for 30 minutes at room temperature. Changes in absorbance were recorded by a microplate readers (Synergy H1 Hybrid Multi-Mode Microplate Reader, USA) at 412 nm. Enzyme concentrations used were within the linear range of their toxicity activity.
(§9) %Inhibition=[Acon−Asam/Acon]×100%,where
(§10) Acon: the absorbance of the control
(§11) Asam: the absorbance of the test sample.
(§12) The IC50 was calculated by log-probit analysis using Polo Plus program. Another set of supernatant was loaded with 20 μL of ACTHI and DTNB solution only which served as control. The mean IC50 significant values were statistically determined by comparison of confident interval.

[10] = biological target: AChE extracted from Ae. aegypti larvae (Aedes aegypti, UniProt A4GND7); assay: as above; type: biochemical
AChE extracted from Ae. aegypti larvae, sequence (A4GND7 37-679): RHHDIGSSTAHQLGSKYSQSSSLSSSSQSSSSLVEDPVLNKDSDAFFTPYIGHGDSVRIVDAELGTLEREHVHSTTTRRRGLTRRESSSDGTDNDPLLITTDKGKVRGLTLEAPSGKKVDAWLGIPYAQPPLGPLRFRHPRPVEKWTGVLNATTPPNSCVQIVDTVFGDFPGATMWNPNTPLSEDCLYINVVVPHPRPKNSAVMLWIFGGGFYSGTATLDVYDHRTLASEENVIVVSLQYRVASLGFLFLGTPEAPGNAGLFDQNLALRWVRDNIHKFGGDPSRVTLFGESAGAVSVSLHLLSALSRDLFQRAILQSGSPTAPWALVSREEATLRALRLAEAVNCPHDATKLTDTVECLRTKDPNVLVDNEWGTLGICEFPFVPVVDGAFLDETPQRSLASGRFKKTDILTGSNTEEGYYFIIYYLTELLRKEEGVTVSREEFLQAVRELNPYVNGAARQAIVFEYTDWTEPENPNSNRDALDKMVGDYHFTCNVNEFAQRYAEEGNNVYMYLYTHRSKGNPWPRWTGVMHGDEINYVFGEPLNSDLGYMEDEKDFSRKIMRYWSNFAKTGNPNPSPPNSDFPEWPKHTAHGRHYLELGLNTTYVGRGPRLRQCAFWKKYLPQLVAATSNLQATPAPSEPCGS
Protocol: as §7, §8, §9, §10, §11, §12

[11] = biological target: AChE extracted from Cx. quinquefasciatus larvae (Culex quinquefasciatus, UniProt Q867X2); assay: as above; type: biochemical
AChE extracted from Cx. quinquefasciatus larvae (Culex quinquefasciatus, UniProt Q867X2), sequence (Q867X2 whole entry): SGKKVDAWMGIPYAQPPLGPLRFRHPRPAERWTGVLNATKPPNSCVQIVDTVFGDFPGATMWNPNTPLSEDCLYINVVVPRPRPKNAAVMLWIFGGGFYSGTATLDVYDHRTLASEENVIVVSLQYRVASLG
Protocol: as §7, §8, §9, §10, §11, §12

[12] = test system: AChE extracted from Cx. quinquefasciatus larvae; assay: as above; type: biochemical; settings: Culex quinquefasciatus; 95% confidence interval in brackets; log-probit
Protocol: as §7, §8, §9, §10, §11, §12

[13] = test system: Ae. aegypti eggs; assay: Ovicidal activity (egg hatching); settings: for mortality at 25 µg/mL: read-out: ovicidal activity (% of egg mortality), 25 μg/mL
[14] = even at higher dosage of 100 μg/mL
[15] = Culex quinquefasciatus, 48 h, 48 hours
[16] = Aedes albopictus, 48 h, 48 hours

Compound	mortality at 9.3 µg/mL [1] [%]	% larvae mortality ([3]; ≤ 9.3 μg/mL)	Slope ± S.E of log-probit AChE inhibition curve [9]	Slope ± S.E of log-probit AChE inhibition curve [10]	Slope ± S.E of log-probit AChE inhibition curve [11]	dosage that can cause 50% mortality [1] [µg/mL]	dosage that can cause 50% mortality [2] [µg/mL]	dosage that can cause 50% mortality [3] [µg/mL]	mortality at 25 µg/mL [4, 15] [%]	repellent activity (in words) ([5]; 50 to 150 μg/mL)	% repellency [6]	repellent activity (in words) ([6]; 50 to 150 μg/mL)	% repellency [7]	repellent activity (in words) ([7]; 50 to 150 μg/mL)	mortality at 25 µg/mL [8, 16] [%]	mortality at 25 µg/mL ([13]; Aedes aegypti, 48 h, 48 hours) [%]	also measured
C/C=C/c1cc(OC)c(OC)cc1OC [Trans-asarone 3, trans-asarone]	5 to 20	5–20%	2.00±0.16	3.63±0.14	2.46±0.13												% larvae mortality ([2]; ≤ 9.3 μg/mL): 5–20%; effect on egg hatchability [4, 14]: no effect; repellent activity (in words) ([5]; in vivo): not significant; repellent activity (in words) ([6]; in vivo): not significant; repellent activity (in words) ([7]; in vivo): not significant; effect on egg hatchability [8, 14]: no effect; AChE enzyme inhibition IC50 [12]: 17.4(12.6 to 24.4) μg/mL; effect on egg hatchability [13, 14]: no effect
C=CCc1cc2c(cc1OC)OCO2 [Asaricin 1, asaricin]	≤ 80	≤ 90%	2.25±0.14	2.07±0.13	2.50±0.14	≤ 7	≤ 7	≤ 7	≤ 95	very weak	below 65%	very weak	below 65%	very weak	≤ 95	≤ 95	% larvae mortality [1]: up to 100%; % larvae mortality ([1]; listed as asaricin 1): 100%; % larvae mortality ([3]; ≤ 15 μg/mL): up to 100%; % larvae mortality ([3]; ≤ 15 μg/mL, listed as asaricin 1): 100%; % repellency ([5]; 300 μg/mL): below 65%
C=CCc1cc(OC)c(OC)cc1OC [Isoasarone 2, isoasarone]	≤ 80	≤ 90%	2.57±0.14	2.41±0.15	2.29±0.13	≤ 7	≤ 7	≤ 7	≤ 95	very weak	below 55%	very weak	below 55%	very weak	≤ 95	≤ 95	mortality at 20 µg/mL ([4]; Culex quinquefasciatus, 48 h, read-out: ovicidal activity (% of egg mortality), 20 μg/mL, 48 hours): 80 to 90%; mortality at 20 µg/mL ([8]; Aedes albopictus, 48 h, read-out: ovicidal activity (% of egg mortality), 20 μg/mL, 48 hours): 80 to 90%; mortality at 20 µg/mL ([13]; Aedes aegypti, 48 h, read-out: ovicidal activity (% of egg mortality), 20 μg/mL, 48 hours): 80 to 90%
